Laboratory results: patent publication US6949652B2, “Crystalline forms of 3-isopropyl-6-[4-(2,5-difluoro-phenyl)-oxazol-5-yl]-[1,2,4]triazolo-[4,3-A]pyridine” (Pfizer, Inc., priority 2002, dated 2005)

Columns and labels:
[1] = system: MAPKAP kinase-2; test: MAPKAP Kinase-2 assay (LPS-stimulated monocytes, immunoprecipitation, kinase activity); type: cell-based; details: human monocytes, LPS 30 minutes, MAPKAP kinase-2 immunoprecipitate; read-out: IC50 in the MAPKAP in vitro assay
Procedure: Mononuclear cells are collected from heparinized human blood as detailed above. The washed cells are seeded into 6-well cluster plates at a density of 1×10^7 cells/well (in 2 ml of Medium). The plates are incubated at 37° C. in a 5% CO2 environment for 2 hours to allow adherence of the monocytes, after which time media supernatants containing non-adherent cells are removed by aspiration and 2 ml of fresh medium are added to each well. Plates are incubated overnight at 37° C. in a 5% CO2 environment.
Media are removed by aspiration. The attached cells are rinsed twice with fresh Medium, then 2 ml of D-MEM medium containing 10% heat inactivated FBS are added to each well. 3-isopropyl-6-[4-(2,5-difluoro-phenyl)-oxazol-5-yl]-[1,2,4]triazolo-[4,3-a]pyridine is prepared as a 30 mM stock solution in DMSO and diluted to 1250, 250, 50, 10, 2, and 0.4 μM in D-MEM containing 1% DMSO and 10% FBS. To individual wells of the monocyte cultures, 20 μl of these 3-isopropyl-6-[4-(2,5-difluoro-phenyl)-oxazol-5-yl]-[1,2,4]triazolo-[4,3-a]pyridine dilutions are added resulting in final 3-isopropyl-6-[4-(2,5-difluoro-phenyl)-oxazol-5-yl]-[1,2,4]triazolo-[4,3-a]pyridine concentrations of 12.5, 2.5, 0.5, 0.1, 0.02 and 0.004 μM. After a 10 minute preincubation period, 20 μl of a 10 μg/ml LPS solution are added to each well and the plates are incubated at 37° C. for 30 minutes. […]

[2] = system: TNF-alpha production by human LPS-treated monocytes; test: Inhibition of TNF-alpha production by human LPS-treated monocytes; type: cell-based; details: Monocyte, human mononuclear cells, 4 hours, TNF-α ELISA, read-out: IC50 in the TNFα in vitro assay
Procedure: Inhibition of TNF-alpha Production by Human LPS-treated Monocytes
Mononuclear cells are isolated from heparinized blood (1.5 ml of 1000 units/ml heparin for injection, Elkins-Sinn, Inc. added to each 50 ml sample) using Accuspin System-Histopaque-1077 tubes (Sigma A-7054). Thirty-five milliliters of whole blood are added to each tube and the tubes are centrifuged at 2100 rpm for 20 minutes in a Beckman GS-6KR centrifuge with the brake off at room temperature. The mononuclear cells which collect at the interface are removed, diluted with Macrophage serum free medium (Gibco-BRL) (Medium) to achieve a final volume of 50 ml, and collected by centrifugation for 10 minutes. The supernatant is discarded and the cell pellet is washed 2 times with 50 ml of Medium. A sample of the suspended cells is taken before the second wash for counting. Based on this count, the washed cells are diluted with Medium containing 1% FBS to a final concentration of 2.7×10^6 cells/ml and 75 μl of the cell suspension is added to each well of a 96 well plate.
3-isopropyl-6-[4-(2,5-difluoro-phenyl)-oxazol-5-yl]-[1,2,4]triazolo-[4,3-a]pyridine may be tested at final concentrations from 2 μM to 0.016 μM, but may be tested at other concentrations, depending on desire. […]
Supernatants are analyzed for TNF-α content using R&D ELISA. […]
The amount of TNF-α immunoreactivity in the samples is calculated as follows: […]

[3] = system: TNFα; test: In vivo inhibition of TNFα (LPS-injected rats, serum TNFα ELISA); details: Rattus norvegicus, ip, drug 1 hour before LPS i.p., serum TNFα 90 minutes later
Procedure: In Vivo Inhibition of TNFα Rats were weighed and dosed with vehicle (0.5% methyl cellulose, Sigma) or drug. One hour later, animals were injected i.p. with LPS (50 ug/rat, Sigma L-4130). Ninety minutes later, animals were sacrificed by asphyxiation with CO2 and bled by cardiac puncture. Blood was collected in Vaccutainer tubes and spun for 20 minutes at 3000 rpm. Serum was assayed for TNFα levels using an ELISA (R&D Systems).

[4] = Solid-state stability / dehydration of hydrate crystal forms; type: physicochemical; details: for Dehydration temperature range: solid crystal form
Procedure: Differential Scanning Calorimetry (DSC) analysis was carried out on either TA Instruments DSC2920 or TA instrument Q1000 or a Mettler DSC 821, calibrated with indium. DSC sample was prepared by weighing 2-4 mg of material in an aluminum pan with a pinhole. The sample was heated under nitrogen, at a rate of 5° C. or 10° C. per minute from 3 to 300 C.

IC50 [1]	IC50 [2]	Dehydration temperature range [4]	Form conversion upon dehydration [4]	Structure (SMILES)	ED50 [3]
< 10 µM	< 10 µM	–	–	CC(C)c1nnc2ccc(-c3ocnc3-c3cc(F)ccc3F)cn12 [6-[4-(2,5-Difluoro-phenyl)-oxazol-5-yl]-3-isopropyl-[1,2,4]triazolo-[4,3-a]pyridine]	< 50 mg/kg
–	–	30 to 70 °C	–	CC(C)c1nnc2ccc(-c3ocnc3-c3cc(F)ccc3F)cn12 [Form D, 3-Isopropyl-6-[4-(2,5-difluoro-phenyl)-oxazol-5-yl]-[1,2,4]triazolo-[4,3-a]pyridine form D]	–
–	–	75 to 100 °C	converts to Form B upon dehydration	CC(C)c1nnc2ccc(-c3ocnc3-c3cc(F)ccc3F)cn12 [Form E, 3-Isopropyl-6-[4-(2,5-difluoro-phenyl)-oxazol-5-yl]-[1,2,4]triazolo-[4,3-a]pyridine form E]	–
